The record followed here is PubChem BioAssay (NCI).

The TGI is the concentration at which net growth stops. The GI50 is the concentration at which growth is held to half of that of the control.

Holding throughout (assay): DTP human tumour cell line panel, 48 h
The test system of assay [1] is UO-31 renal.
The test system of assay [2] is MALME-3M melanoma.
Assay [3] deals with EKVX NSCLC.
For assay [4], the system named is SK-MEL-2 melanoma.
For assay [5], the system named is LOX IMVI melanoma.
In assay [6] the test system is HCT-15 colon.
Assay [7] deals with RXF 393 renal.
Assay [8] has as its system DU-145 prostate.
In assay [9] the test system is T-47D breast.
Assay [10] deals with BT-549 breast.

Molecules are shown by their SMILES. Where “and” joins values, the source holds several entries; their conditions need not be identical. Equal entries are not always repeated.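 Step 1: Grow cells in 96-well plates. Step 2: Expose to compound for 48 hours at 5 concentrations. Step 3: Interpolate endpoints linearly; if unreached, use highest concentration. At the GI50, growth is halved. TGI: concentration producing complete growth inhibition.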

Turning to `CN1C(c2ccccc2)CC(C)(O)CC1c1ccccc1` (stereo unspecified), the TGI in assay [1], in assay [2], in assay [3], in assay [4], in assay [5] and in [6] was over 100 µM each time. Besides, the total growth inhibition concentration (TGI) in [7] is over 100 µM.

On to `Cn1cnc([N+](=O)[O-])c1Sc1nc2ccccc2o1`, for which the total growth inhibition concentration (TGI) in assay [1] amounted to 24.8 µM; in assay [2] it was 16.6 µM; in assay [3] it was 15.3 µM; in [4] it was 52.9 µM; in [5] it was 26.1 µM; in assay [6], 11.2 µM. The compound also displayed a TGI in assay [7] of 22.1 µM.

Regarding `[N-]=[N+]=NCCCn1c2c(c3ccc([N+](=O)[O-])cc3c1=O)C(=O)c1cc(I)ccc1-2`, the GI50 in [1] is 3.82 µM; in assay [2], 12.5 µM; in assay [3], 22 µM; in [4] it was 71.2 µM; in assay [8], 1.78 µM; in [5] it was 3.75 µM. Further, the GI50 in [6] was 18.5 µM; in assay [9], 3.87 µM; in assay [7] it was 12.5 µM. Besides, the concentration for total growth inhibition (TGI) in assay [1] was 45.6 µM; in assay [2], 77 µM; in assay [3], over 100 µM; in assay [4], over 100 µM; in assay [8], 6.95 µM; in [5], 33 µM. Besides, the TGI was over 100 µM in assay [6], over 100 µM in assay [9] and 62.8 µM in assay [7].

With `CCC[CH2][Sn]1([CH2]CCC)[O]C(=O)CN=C(C)c2ccccc2[O]1`, the GI50 was 1.32 µM in [1]; 1.04 µM in assay [2]; 1.48 µM in assay [3]; 0.5 µM in assay [4]; 0.533 µM in assay [5]; 1.15 µM in assay [6]. For the same compound, the GI50 in assay [7] was 0.222 µM. For the same compound, the concentration for total growth inhibition (TGI) in [1] is 2.63 µM; in [2], 2.3 µM; in assay [3] it was 2.99 µM; in [4], 1.55 µM; in [5], 1.84 µM; in assay [6], 2.46 µM. The compound also yielded a TGI in assay [7] of 0.786 µM.

On to `O=c1c2ccccc2nc2n1CCc1c-2[nH]c2cc3c(cc12)OCO3`, for which the TGI in assay [1], in assay [3], in assay [6] and in assay [9] was over 25 µM each time.

On to `O=C(O)CCC(=O)Oc1ccc(O)c2c1CCCC2=O`, for which the concentration for total growth inhibition (TGI) in [1], in assay [2], in assay [3], in assay [4], in assay [5] and in assay [6] was over 100 µM in each case. Besides, the TGI in [7] was over 100 µM.

Turning to `COC(=O)[C@H](Cc1ccccc1)NNC(=O)c1csc([C@@H](C[C@H](C(C)C)N(C)C(=O)[C@@H](NC(=O)[C@H]2CCCCN2C)C2CC2)OC(C)=O)n1`, the total growth inhibition concentration (TGI) was 0.317 µM and 0.973 µM in assay [10]; 25 µM and > 100 µM in assay [1]; over 100 µM in assay [2]; over 100 µM in assay [3]; over 100 µM in [4]; 25 µM and > 100 µM in [8]. Also, the TGI was 25 µM and > 100 µM in assay [5]; 25 µM and > 100 µM in assay [6]; 25 µM in assay [7]. In addition, the 50% growth inhibitory concentration (GI50) is 0.035 µM and 0.0932 µM in assay [4]; 0.0025 µM in assay [7].

As to `N#CC(C(=O)CCC(=O)Nc1ccc(Cl)cc1)c1ccc(Cl)cc1` (stereo unspecified), the concentration for total growth inhibition (TGI) in assay [1], in assay [2], in assay [3], in [4], in assay [5] and in assay [6] was over 100 µM in each case.

With `O=C1C(Cl)=C(Cl)C(=O)N1c1ccccc1Cl`, the TGI in assay [1] was over 100 µM; in assay [2], over 88 µM; in assay [3], over 100 µM; in assay [4], over 100 µM; in assay [5] it was over 100 µM; in [6], over 88.4 µM. In addition, the TGI in [7] is over 100 µM.

Consider `CCC(C)C(=O)O[C@H]1C(=O)O[C@@H]2C[C@H]3C(C)=CC(=O)[C@@H](O)[C@]3(C)[C@H]3[C@@H](O)[C@H](O)[C@@]4(C)OC[C@]32[C@@H]14` (stereo partly specified), for which the total growth inhibition concentration (TGI) is 0.0859 µM in [1]; under 0.024 µM in [2]; under 0.0507 µM in [4]; under 0.0164 µM in assay [8]; under 0.0246 µM in assay [5]; 0.071 µM in assay [6]. Also, the values for the TGI in [9] and in assay [7] were under 0.0105 µM and under 0.0345 µM, respectively.

Regarding `O=C(CCC(=O)Nc1ccc(Cl)cc1)CC(=O)c1ccc2ccccc2c1`, the total growth inhibition concentration (TGI) in [1], in assay [2], in assay [3], in [4], in [5] and in assay [6] was over 100 µM each time. Further, the total growth inhibition concentration (TGI) in assay [7] is over 100 µM.

In the case of `O=C(Nc1ccccc1)n1cc(-c2ccccn2)c(N2CCOCC2)n1`, the TGI is 92.8 µM in [1]; 8.78 µM in [2]; over 100 µM in [3]; over 100 µM in assay [5]; over 100 µM in assay [6].

Turning to `Cc1ccccc1C=NC12CC3CC(CC(C3)C1)C2`, the total growth inhibition concentration (TGI) in assay [1], in [2], in assay [3], in assay [4], in assay [5] and in assay [6] was over 100 µM in each case. The concentration for total growth inhibition (TGI) in assay [7] was over 100 µM.

Take `COc1ccc(C2CC(c3ccccc3)=NN2C(=O)c2cc(OC)c(OC)c(OC)c2)cc1O` (stereo unspecified): the GI50 in [10] is 2 µM; in assay [1], 0.751 µM; in [2], 41.2 µM; in assay [3], 3.04 µM; in [4], 4.74 µM; in [8], 0.479 µM. The GI50 in assay [5] was 0.611 µM; in [6] it was 0.352 µM; in [7], 0.317 µM. The concentration for total growth inhibition (TGI) is 21.4 µM in assay [10]; over 100 µM in assay [1]; over 100 µM in [2]; over 100 µM in assay [3]; over 42 µM in assay [4]; 15.6 µM in [5]. The values for the TGI in [6] and in [7] were 40.2 µM and 0.84 µM, respectively.

For the compound `CC(=O)n1nnc2ccc([N+](=O)[O-])cc21`, the TGI in assay [1], in [2], in [3], in [4], in assay [5] and in assay [7] was over 100 µM in each case.
